Data on three compounds can be found in patent publication US20240150290A1, “HETEROCYCLIC P2Y14 RECEPTOR ANTAGONISTS” (priority 2021, published 2024).

Each structure is given as a SMILES string. Read-outs that look alike come from different tables or passages of the source. Marks after values point to notes of the source that are not given here.

Series [1] can be described thus: Microsomal stability, mouse. As to conditions: Table 7. Type of series: in vitro ADME.
Series [2] in a line: Microsomal stability, human.
A further series addresses hERG (Homo sapiens, UniProt Q12809). Description: hERG inhibition, fluorescent method. Type of series: binding. The following applies: Table 7. In general terms: The hERG channel carries a current that helps repolarise heart muscle cells.
Series [3] addresses T1, mP2Y14R (Mus musculus, UniProt Q9ESG6).
T1 sequence (Q9ESG6 1-338): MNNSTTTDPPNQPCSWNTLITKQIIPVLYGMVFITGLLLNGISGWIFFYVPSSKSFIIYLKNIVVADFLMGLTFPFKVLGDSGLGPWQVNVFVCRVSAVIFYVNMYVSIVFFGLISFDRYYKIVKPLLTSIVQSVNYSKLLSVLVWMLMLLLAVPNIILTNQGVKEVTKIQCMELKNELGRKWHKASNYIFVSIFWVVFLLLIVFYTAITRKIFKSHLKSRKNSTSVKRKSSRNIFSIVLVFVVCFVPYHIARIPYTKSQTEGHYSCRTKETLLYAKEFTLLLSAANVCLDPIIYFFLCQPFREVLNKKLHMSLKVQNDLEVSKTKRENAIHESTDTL
The series can be described thus: cell-based. The following applies: read-out: mP2Y14R, IC50; Table 6; whole mP2Y14R-HEK cells, 200 nM of 3, mean ± SEM, n = 3-6. The source says:
Desirably, receptor affinity is maintained across species, facilitating performance in in vivo preclinical testing in small animals, with the mouse being the most commonly used species in initial evaluation.

A short description of series [4]: Stability in simulated gastric fluid. As to conditions: Table 7.
The target in another series is CYP2C19 (Homo sapiens, UniProt P33261). The series can be described thus: CYP2C19 inhibition. As to conditions: Table 7. Type of series: in vitro ADME.
Chain of CYP2C19 (P33261 whole entry): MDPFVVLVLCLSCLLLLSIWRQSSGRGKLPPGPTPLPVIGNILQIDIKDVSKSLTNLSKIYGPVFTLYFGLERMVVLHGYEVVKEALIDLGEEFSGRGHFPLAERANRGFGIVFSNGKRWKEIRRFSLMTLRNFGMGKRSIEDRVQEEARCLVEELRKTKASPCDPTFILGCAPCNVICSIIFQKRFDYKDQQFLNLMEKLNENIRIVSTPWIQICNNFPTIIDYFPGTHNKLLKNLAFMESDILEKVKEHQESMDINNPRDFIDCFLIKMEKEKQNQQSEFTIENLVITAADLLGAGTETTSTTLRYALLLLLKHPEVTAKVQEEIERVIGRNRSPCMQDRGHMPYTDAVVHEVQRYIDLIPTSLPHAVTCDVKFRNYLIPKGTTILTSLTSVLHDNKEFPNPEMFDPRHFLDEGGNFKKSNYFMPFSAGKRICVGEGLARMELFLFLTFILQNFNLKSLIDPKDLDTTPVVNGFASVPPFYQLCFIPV
A further series concerns the target CYP2C9 (Homo sapiens, UniProt P11712). The series can be described thus: CYP2C9 inhibition.
Series [5] is described as follows: Plasma protein binding, rat. Type of series: in vitro ADME.
A short description of the next series: Plasma stability, mouse. The following applies: Table 7.
The nature of series [6]: Stability in simulated intestinal fluid. The following applies: Table 7.
For a further series, the target named is CYP2D6 (Homo sapiens, UniProt P10635). Description: CYP2D6 inhibition. Type of series: in vitro ADME. As to conditions: Table 7.
Chain of CYP2D6 (P10635 whole entry): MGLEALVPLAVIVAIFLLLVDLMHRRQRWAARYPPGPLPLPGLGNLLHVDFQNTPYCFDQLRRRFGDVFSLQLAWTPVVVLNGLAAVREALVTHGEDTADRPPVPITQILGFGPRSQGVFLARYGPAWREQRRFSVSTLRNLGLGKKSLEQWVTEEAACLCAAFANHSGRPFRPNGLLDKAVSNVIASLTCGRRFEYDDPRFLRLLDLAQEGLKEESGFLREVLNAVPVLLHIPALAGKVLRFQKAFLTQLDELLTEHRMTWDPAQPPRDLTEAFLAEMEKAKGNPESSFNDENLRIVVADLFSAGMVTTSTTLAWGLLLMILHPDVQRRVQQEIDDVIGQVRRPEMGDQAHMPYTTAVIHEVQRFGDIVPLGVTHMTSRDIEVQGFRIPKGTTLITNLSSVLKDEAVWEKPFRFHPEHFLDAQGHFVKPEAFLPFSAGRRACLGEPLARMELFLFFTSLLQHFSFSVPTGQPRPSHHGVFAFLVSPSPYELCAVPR
A further series in a line: Plasma stability, rat. As to conditions: Table 7.
In a further series the target is CYP3A4 (Homo sapiens, UniProt P08684). The series can be described thus: CYP3A4 inhibition. Type of series: in vitro ADME. The following applies: Table 7.
Chain of CYP3A4 (P08684 whole entry): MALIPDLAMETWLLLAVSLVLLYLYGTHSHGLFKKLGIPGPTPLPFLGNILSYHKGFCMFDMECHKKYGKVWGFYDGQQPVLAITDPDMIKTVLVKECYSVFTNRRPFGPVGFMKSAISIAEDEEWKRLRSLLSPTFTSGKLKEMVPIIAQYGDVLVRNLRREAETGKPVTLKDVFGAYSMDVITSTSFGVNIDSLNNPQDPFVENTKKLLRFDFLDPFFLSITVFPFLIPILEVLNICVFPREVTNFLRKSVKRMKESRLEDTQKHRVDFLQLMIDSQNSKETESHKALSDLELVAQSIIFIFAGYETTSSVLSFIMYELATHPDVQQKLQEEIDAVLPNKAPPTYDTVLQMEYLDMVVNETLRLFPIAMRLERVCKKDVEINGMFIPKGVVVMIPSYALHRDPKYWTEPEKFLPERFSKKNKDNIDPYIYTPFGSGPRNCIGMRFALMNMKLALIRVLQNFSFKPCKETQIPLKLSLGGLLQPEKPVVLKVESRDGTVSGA
The target in series [7] is T2, hP2Y14R (Homo sapiens, UniProt Q15391).
T2 construct: expressed in transfected cells; host or cells: CHO cells
T2 sequence (Q15391 1-338): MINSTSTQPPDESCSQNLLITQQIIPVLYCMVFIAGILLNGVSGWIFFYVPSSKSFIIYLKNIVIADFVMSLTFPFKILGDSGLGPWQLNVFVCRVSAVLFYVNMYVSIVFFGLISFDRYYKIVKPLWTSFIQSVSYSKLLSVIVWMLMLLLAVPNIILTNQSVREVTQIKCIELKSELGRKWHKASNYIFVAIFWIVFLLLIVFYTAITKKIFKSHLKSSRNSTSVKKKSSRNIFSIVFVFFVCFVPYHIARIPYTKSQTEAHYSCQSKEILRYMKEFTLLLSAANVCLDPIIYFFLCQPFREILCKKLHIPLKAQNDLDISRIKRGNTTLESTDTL
The series can be described thus: Inhibition of fluorescent antagonist binding in whole hP2Y14R-expressing CHO cells (flow cytometry).

Series [8] is described as follows: Plasma protein binding, human. Type of series: in vitro ADME.
The target of a further series is T3, CYP1A2 (Homo sapiens, UniProt P05177).
T3 sequence (P05177 1-516): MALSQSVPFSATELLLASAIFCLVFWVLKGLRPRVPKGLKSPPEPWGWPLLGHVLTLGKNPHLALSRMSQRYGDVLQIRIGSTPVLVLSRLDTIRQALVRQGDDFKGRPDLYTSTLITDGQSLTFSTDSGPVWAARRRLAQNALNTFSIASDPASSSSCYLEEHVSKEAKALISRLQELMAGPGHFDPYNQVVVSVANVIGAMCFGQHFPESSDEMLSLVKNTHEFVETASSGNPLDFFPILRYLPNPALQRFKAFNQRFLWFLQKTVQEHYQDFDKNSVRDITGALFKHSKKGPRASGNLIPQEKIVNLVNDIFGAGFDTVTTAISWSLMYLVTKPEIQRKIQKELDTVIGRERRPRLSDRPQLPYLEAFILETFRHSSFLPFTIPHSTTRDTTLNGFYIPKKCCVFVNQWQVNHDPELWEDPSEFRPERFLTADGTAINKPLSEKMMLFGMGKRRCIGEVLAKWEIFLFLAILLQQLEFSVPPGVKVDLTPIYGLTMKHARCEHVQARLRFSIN
The series can be described thus: CYP1A2 inhibition. Type of series: in vitro ADME. As to conditions: Table 7.

Series [9] can be described thus: Plasma protein binding, mouse. Type of series: in vitro ADME.
Series [10] can be described thus: In vivo half-life by administration mode (Table 7).
Series [11] is described as follows: Microsomal stability, rat. Type of series: in vitro ADME. The following applies: Table 7.
Series [12] can be described thus: Aqueous solubility, pION method.
For series [13] the following is noted: mouse; Table 7; Jung et al. 2020; cited from earlier work.
The target in series [14] is T2, hP2Y14R. The following applies: Table 2; data from Jung et al. and Mufti et al.; cited from earlier work.
Series [15] is described as follows: HPLC-based lipophilicity (Log D7.4).
The conditions of series [16]: mouse; Table 7; Jung et al. 2020; cited from earlier work. This is another data set of the same source.
Series [17] concerns the target T1, mP2Y14R. Details: expressed in transfected cells. The following applies: Table 2; data from Jung et al. and Mufti et al.; cited from earlier work.
For series [18] the following is noted: human; Table 7; Jung et al. 2020; cited from earlier work.
The conditions of series [19]: human; Table 7; Jung et al. 2020; cited from earlier work. The source holds these as a separate data set.
The conditions of series [20]: Table 7, Jung et al. 2020, cited from earlier work.
Another series concerns the target hERG ion channel (Homo sapiens, UniProt Q12809). Description: hERG ion channel block, patch clamp assay.
Series [21] concerns CCI-induced mechano-allodynia. The series can be described thus: Chronic constriction injury (CCI) mouse model of neuropathic pain. The following applies: 10 μmol/kg, i.p.
Setting [22] is: Table 6, fluorescent hP2Y14R antagonist (3), read-out: hP2Y14R, IC50.
Where [23] appears, read: first value of the cell (mode not given; by the column of 4: i.p.).
[24] abbreviates: second value of the cell (mode not given; by the column of 4: i.v., 0.5 mg/kg).

Chain of hERG (Q12809 whole entry): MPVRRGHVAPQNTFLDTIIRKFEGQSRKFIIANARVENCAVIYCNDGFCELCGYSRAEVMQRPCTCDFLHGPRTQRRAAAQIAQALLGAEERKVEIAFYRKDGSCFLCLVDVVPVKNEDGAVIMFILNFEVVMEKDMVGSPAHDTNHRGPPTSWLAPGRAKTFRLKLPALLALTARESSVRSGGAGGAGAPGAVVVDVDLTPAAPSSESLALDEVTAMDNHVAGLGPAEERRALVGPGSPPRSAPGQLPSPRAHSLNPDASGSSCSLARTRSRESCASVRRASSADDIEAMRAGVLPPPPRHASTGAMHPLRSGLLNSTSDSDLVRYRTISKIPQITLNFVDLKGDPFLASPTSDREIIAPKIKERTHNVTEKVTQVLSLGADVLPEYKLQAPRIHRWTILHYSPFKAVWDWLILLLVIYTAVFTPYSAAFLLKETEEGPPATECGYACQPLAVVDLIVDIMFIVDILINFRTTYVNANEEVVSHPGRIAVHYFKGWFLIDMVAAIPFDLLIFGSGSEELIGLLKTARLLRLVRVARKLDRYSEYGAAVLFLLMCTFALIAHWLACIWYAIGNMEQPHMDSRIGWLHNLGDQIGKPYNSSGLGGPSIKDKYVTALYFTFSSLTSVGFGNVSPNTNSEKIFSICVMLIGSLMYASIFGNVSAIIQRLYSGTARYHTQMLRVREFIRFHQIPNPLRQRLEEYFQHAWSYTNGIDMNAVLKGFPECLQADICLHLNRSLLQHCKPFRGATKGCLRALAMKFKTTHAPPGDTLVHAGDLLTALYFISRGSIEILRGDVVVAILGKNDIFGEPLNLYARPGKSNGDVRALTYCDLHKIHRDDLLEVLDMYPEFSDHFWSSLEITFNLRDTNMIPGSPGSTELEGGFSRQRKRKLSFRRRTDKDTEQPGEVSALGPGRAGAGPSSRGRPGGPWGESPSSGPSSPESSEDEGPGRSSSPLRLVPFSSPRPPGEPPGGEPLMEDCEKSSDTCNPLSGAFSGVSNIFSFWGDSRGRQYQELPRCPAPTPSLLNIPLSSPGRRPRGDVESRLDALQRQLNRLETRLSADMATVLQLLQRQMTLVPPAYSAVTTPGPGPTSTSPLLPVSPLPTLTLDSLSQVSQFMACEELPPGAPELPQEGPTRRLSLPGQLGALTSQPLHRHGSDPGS
Chain of CYP2C9 (P11712 whole entry): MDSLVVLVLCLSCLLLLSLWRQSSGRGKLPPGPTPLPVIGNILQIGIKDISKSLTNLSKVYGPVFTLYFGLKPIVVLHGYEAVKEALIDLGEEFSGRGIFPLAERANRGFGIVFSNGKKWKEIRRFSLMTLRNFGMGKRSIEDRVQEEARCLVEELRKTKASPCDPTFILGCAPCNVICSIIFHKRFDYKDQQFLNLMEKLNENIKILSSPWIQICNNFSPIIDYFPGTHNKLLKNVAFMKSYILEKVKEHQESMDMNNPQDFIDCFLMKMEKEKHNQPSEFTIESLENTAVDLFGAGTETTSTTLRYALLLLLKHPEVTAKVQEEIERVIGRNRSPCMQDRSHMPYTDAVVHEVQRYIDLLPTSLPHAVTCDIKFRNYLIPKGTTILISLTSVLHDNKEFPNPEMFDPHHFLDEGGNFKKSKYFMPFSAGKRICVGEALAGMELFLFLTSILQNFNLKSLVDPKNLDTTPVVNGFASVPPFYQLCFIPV
Chain of hERG ion channel (Q12809 whole entry): as the sequence (Q12809 whole entry) above

Consider `O=C(O)c1cc(-c2ccc([C@@H]3C[C@@H]4C[C@H]3NC4=O)cc2)c2ccc(-c3ccc(C(F)(F)F)cc3)cc2c1` [Compound 121, 4-(4-((1R,4R,6S)-3-Oxo-2-azabicyclo[2.2.1]heptan-6-yl)phenyl)-7-(4-(trifluoromethyl)phenyl)-2-naphthoic acid], for which the “Microsomal stability (t1/2, min)” value is given as more than 1000 min in series [1] and 89.4 min in series [11]. Moreover, the half-life (in general, the time in which the quantity being followed falls by half) in series [2] (liver microsomes) was 14.2 h. Besides, the concentration for half-maximal inhibition (IC50) (as a rule, the point on the concentration scale where inhibition reaches its midpoint) against hERG is more than 30000 nM; on mP2Y14R [3] it was 42.9 ± 7 nM; at CYP2C19, more than 30000 nM; against CYP2C9, more than 30000 nM; on CYP2D6, more than 30000 nM; against CYP3A4, more than 30000 nM. In addition, the IC50 on hP2Y14R [7] (setting [22]) was 37.3 ± 6 nM; at CYP1A2, more than 30000 nM. Further, in [4], the “Simulated gastric fluid (% remaining at 120 min)” value is reported as 59.3%. In addition, the “Rat, % bound (±SD)” value in [5] was determined as 96.18 ± 0.32%. For the same compound, the “Plasma stability (% remaining at 120 min)” value in “Plasma stability, mouse” is 74.1%; in the series “Plasma stability, rat”, 74.7%. Further, the “Simulated intestinal fluid (% remaining at 120 min)” value in series [6] is 100%. Further, in series [8], the “Human, % bound (±SD)” value is on record as 98.89 ± 0.50%. Further, the “Mouse, % bound (±SD)” value in series [9] came to 99.74 ± 0.04%. Moreover, the “t1/2 (h), administration mode” value came to 4.59 h in series [10] (setting [23]) and 2.11 h in series [10] (setting [24]).
As to `O=C(O)c1cc(-c2ccc(C34CCN(CC3)CC4)cc2)c2ccc(-c3ccc(C(F)(F)F)cc3)cc2c1` [Compound 4], the “Solubility (ug/mL) pH 4” value in series [12] amounted to 1.50 ± 0.04 ug/mL. In series [12], the “Solubility (ug/mL) pH 7.4” value stood at 0.55 ± 0.02 ug/mL. Further, the “Microsomal stability (t1/2, min)” value was 67.2 min in series [13] and 8 >240 (h) min in [19]. Besides, the IC50 is 169 ± 42 nM at hP2Y14R [14]; 384 ± 88 nM at mP2Y14R [17]; 20 ± 4.4 nM on hP2Y14R [7] (Example 5 table, whole cell fluorescent binding assay, read-out: IC50); 20 ± 4.4 nM at hP2Y14R [7] (Table 2, whole hP2Y14R-CHO cells, 20 nM fluorescent antagonist 3, mean+SEM, n = 3-6, read-out: IC50). Moreover, in [15] (calculated from retention factor difference between ligands and 1 (k = 3.41)), the “Log D7.4” value is listed as 4.18 ± 0.85^f. Further, the figures for the “Plasma stability (% remaining at 120 min)” value in [16] and in [18] were 100 (m) % and 100%, respectively. Further, the “aqueous solubility (pH 4.0, μg/mL)” value in [20] (pH 4.0) is listed as 14.3 ± 0.5 μg/mL. In addition, the “aqueous solubility (pH 7.4, μg/mL)” value in series [20] (pH 7.4) is given as 0.44 ± 0.06 μg/mL.
Regarding `O=C(O)c1cc(-c2ccc([C@H]3C[C@H]4C[C@@H]3CN4)cc2)c2ccc(-c3ccc(C(F)(F)F)cc3)cc2c1` [Compound 114, 4-(4-((1S,4S,5S)-2-Azabicyclo[2.2.1]heptan-5-yl)phenyl)-7-(4-(trifluoromethyl)phenyl)-2-naphthoic acid], the half-inhibitory concentration (IC50) is more than 30000 nM against hERG ion channel; more than 30000 nM against hERG; 33.9 ± 4.6 nM at mP2Y14R [3]; more than 30000 nM on CYP2C19; more than 30000 nM at CYP2C9; more than 30000 nM on CYP2D6. For the same compound, the results for the IC50 at CYP3A4, on hP2Y14R [7] (setting [22]) and against CYP1A2 were more than 30000 nM, 3.11 ± 0.62 nM and more than 30000 nM, respectively. For the same compound, the “Solubility (ug/mL) pH 4” value in [12] is listed as 1.22 ± 0.05 ug/mL. For the same compound, in series [12], the “Solubility (ug/mL) pH 7.4” value came to 0.77 ± 0.21 ug/mL. For the same compound, the entries for the “Microsomal stability (t1/2, min)” value in [1], in series [2] (Table 7) and in series [11] were 243 min, 280 (h) min and 91.0 min, respectively. In addition, in [4] (aqueous acid stability determined by NMR), the “Simulated gastric fluid (% remaining at 120 min)” value is given as 100^e %. Moreover, the chromatographic logD – broadly, lipophilicity estimated from chromatographic retention – in series [15] (pH 7.4) was determined as 1.92 ± 0.09. Besides, the “Rat, % bound (±SD)” value in series [5] is 99.79 ± 0.02%. Further, the side effects entry in [21] is listed as “No obvious side effects were observed”. Also, the “reversal of mechano-allodynia (figure legend)” value in series [21] (day 7 post-injury) was “reversed the established mechano-allodynia”. Also, the “Plasma stability (% remaining at 120 min)” value in the series “Plasma stability, mouse” came to 100%; in the series “Plasma stability, rat”, 82.8%. Further, the “Simulated intestinal fluid (% remaining at 120 min)” value in series [6] is reported as 99.1%. Moreover, the “Human, % bound (±SD)” value in series [8] was 87.98 ± 10.29%. In [9], the “Mouse, % bound (±SD)” value is listed as 99.76 ± 0.03%. Moreover, the “t1/2 (h), administration mode” value turned out to be 8.94 h in series [10] (setting [23]) and 7.24 h in [10] (setting [24]).
